Tests used:
HSV-2 strain 91075 = assay: Treatment of a systemic HSV-2 infection in mice (mortality); type: in vivo; conditions: oral; for Mortality (%) day 6 / Mortality (%) day 9 / Mortality (%) day 12 / Mortality (%) day 15: twice daily for ten days; for Mortality (%) day 6: day 6 post infection; for Mortality (%) day 9: day 9 post infection; for Mortality (%) day 12: day 12 post infection; for Mortality (%) day 15: day 15 post infection
Experimental: In the following the compound (R)-(+)-9-(3,4-dihydroxybutyl)guanine is denoted VIS 743, the compound (R)-2-amino-9-(3,4-dihydroxybutyl)purine is denoted VSA 305 and Herpes simplex type 2 virus is denoted HSV-2. Mice infected systemically with HSV-2 strain 91075 (10^4 pfu infected i.p.) were treated orally with VIS 743 or VSA 305 twice daily for ten days. Treatment started 1 hour post infection. Mortality was determined on several days post infection.

[1] = Plasma concentration of VIS 743 in mice after giving VIS 743 or VSA 305 orally; type: in vivo; conditions: 15 mg/kg p.o.
Experimental: Mice were given VIS 743 or VSA 305 p.o. Each compound was given in a dosage of 15 mg/kg. The plasma concentrations of VIS 743 were determined by analysis on HPLC, 30, 60, 90 and 120 min after dosage. Each concentration was determined as an average of results from two mice.

| SMILES | Mortality (%) day 6 (HSV-2 strain 91075; 15 mg/kg) [%] | Mortality (%) day 9 (HSV-2 strain 91075; 15 mg/kg) [%] | Mortality (%) day 12 (HSV-2 strain 91075; 15 mg/kg) [%] | Mortality (%) day 15 (HSV-2 strain 91075; 15 mg/kg) [%] | Mortality (%) day 6 (HSV-2 strain 91075; 30 mg/kg) [%] | Mortality (%) day 9 (HSV-2 strain 91075; 30 mg/kg) [%] | Mortality (%) day 12 (HSV-2 strain 91075; 30 mg/kg) [%] | Mortality (%) day 15 (HSV-2 strain 91075; 30 mg/kg) [%] | effect of a low dose (15 mg/kg) compared with a high dose of VIS 743 (30 mg/kg) (HSV-2 strain 91075; VSA 305 15 mg/kg vs VIS 743 30 mg/kg) | biological transformation to VIS 743 [1] |
| --- | --- | --- | --- | --- | --- | --- | --- | --- | --- | --- |
| Nc1nc2c(ncn2CC[C@@H](O)CO)c(=O)[nH]1 [VIS 743, (R)-(+)-9-(3,4-dihydroxybutyl)guanine] | 40 | 80 | 100 | 100 | 0 | 28 | 45 | 53 | – | – |
| Nc1ncc2ncn(CC[C@@H](O)CO)c2n1 [VSA 305, (R)-2-amino-9-(3,4-dihydroxybutyl)purine] | 0 | 45 | 50 | 53 | – | – | – | – | comparable | biologically transformed to VIS 743 |

Reference: US5036071A, “Derivatives of purine” (Medivir AB, priority 1984, dated 1991)
